A value given as a limit tells only on which side of the number the result lay.

Data on seven compounds can be found in publication PMC4965013, “Open Source Drug Discovery with the Malaria Box Compound Collection for Neglected Diseases and Beyond” (PLoS Pathogens, 2016).

Assay [1] addresses cruzain (Trypanosoma cruzi, UniProt P25779). The assay can be described thus: cruzain Z-FR-AMC cleavage. The assay is classed as biochemical. Particulars: 500 nM. As to the method: (§1) Cysteine Protease Inhibitors Cruzain and Rhodesain, Ferreira group (data presented first in this paper). Recombinant cruzain was gently provided by Allison Doak and Dr. Brian Shoichet (University of California, San Francisco), while rhodesain was kindly provided by Dr. Conor Caffrey (Center for Discovery and Innovation in Parasitic Diseases, Skaggs School of Pharmacy and Pharmaceutical Sciences, University of California San Diego). Cruzain and rhodesain activity were measured as previously described, (Ferreira et al., 2010) by monitoring the cleavage of the fluorogenic substrate Z-Phe-Argaminomethylcoumarin (Z-FR-AMC) in a Synergy 2 (Biotek), from the Center of Flow Cytometry and Fluorimetry at the Biochemistry and Immunology Department (Universidade Federal de Minas Gerais, UFMG). Formation of fluorescent 4-amino-7-metyhlcoumarin was measured employing 340 nm wavelength for excitation and 440 nm for emission. […] Initially compounds were pre-incubated with the enzyme for 10 minutes in 100 µL assay buffer, then 100 µL of 5 μM substrate solution was added and the reaction was immediately monitored. Assays were performed in duplicate, followed for 5 min and activity was calculated based on initial velocities. […] Reported values refer to average and standard errors calculated based on duplicates. […] Data was analyzed with Prism 5.0 (GraphPad). […]

Assay [2] addresses rhodesain (Trypanosoma brucei rhodesiense, UniProt Q95PM0). Nature of the assay: rhodesain Z-FR-AMC cleavage. The assay is classed as biochemical. The following applies: 500 nM. As to the method:
as §1

Assay [3] concerns P. falciparum HB3. Nature of the assay: Stage-specificity / mitochondrial integrity image assay Ayong. The assay is classed as cell-based. Particulars: 10µM.
In assay [4] the test system is PK7. The arrangement: method as in ref [25] (a number printed in a supplementary file, which may have a reference list of its own: not looked up in the article's list). Particulars: control 100 µM; compounds 1 µM; ref [25]; cited from earlier work.
Assay [5] has as its system MAPK2. The arrangement: method as in ref [25] (a number printed in a supplementary file, which may have a reference list of its own: not looked up in the article's list). Particulars: control 100 µM; compounds 1 µM; ref [25]; cited from earlier work.
The target of assay [6] is Pf KRS Lysyl-tRNA Synthetase (Plasmodium falciparum, UniProt Q8IDJ8). The assay can be described thus: PfKRS Kinase-Glo aminoacylation. Particulars: control 1µM; compounds 10 µM.
Assay [7] has as its system PfEg5. On the set-up: method as in ref [29] (a number printed in a supplementary file, which may have a reference list of its own: not looked up in the article's list). Particulars: ref [29]; cited from earlier work.
Assay [8] has as its system P. falciparum 3D7 trophozoites. The assay can be described thus: Metabolomic fingerprint profiling LC-MS. The arrangement: UDP-D-glucose / ADP-D-glucose: unit not given here. The assay is classed as cell-based, Plasmodium falciparum.
The subject of assay [9] is P. falciparum. The assay can be described thus: EC50 listed in S2 Table Metabolomics (used to set the concentration tested). The assay is classed as cell-based. Particulars: Plasmodium falciparum; EC50 used for Factor_XEC50 in metabolomics; read-out: EC50_nM.
Assay [10] has as its system PvEg5. On the set-up: method as in ref [29] (a number printed in a supplementary file, which may have a reference list of its own: not looked up in the article's list). The following applies: ref [29]; cited from earlier work.
Assay [11] has as its target Pf ProRS Prolyl-tRNA synthetase (Plasmodium falciparum, UniProt Q8I5R7). The assay can be described thus: PfProRS Kinase-Glo aminoacylation. The following applies: control 1µM; compounds 10 µM.
In assay [12] the target is P. falciparum HDAC1 (Plasmodium falciparum, UniProt Q7K6A1). Nature of the assay: PfHDAC1 HDAC glo I/II. Particulars: 50nM. The class given is biochemical.
The mark [13] stands for this setting: metabolite level change after treatment.

rhodesain, sequence (Q95PM0 entry or part of it): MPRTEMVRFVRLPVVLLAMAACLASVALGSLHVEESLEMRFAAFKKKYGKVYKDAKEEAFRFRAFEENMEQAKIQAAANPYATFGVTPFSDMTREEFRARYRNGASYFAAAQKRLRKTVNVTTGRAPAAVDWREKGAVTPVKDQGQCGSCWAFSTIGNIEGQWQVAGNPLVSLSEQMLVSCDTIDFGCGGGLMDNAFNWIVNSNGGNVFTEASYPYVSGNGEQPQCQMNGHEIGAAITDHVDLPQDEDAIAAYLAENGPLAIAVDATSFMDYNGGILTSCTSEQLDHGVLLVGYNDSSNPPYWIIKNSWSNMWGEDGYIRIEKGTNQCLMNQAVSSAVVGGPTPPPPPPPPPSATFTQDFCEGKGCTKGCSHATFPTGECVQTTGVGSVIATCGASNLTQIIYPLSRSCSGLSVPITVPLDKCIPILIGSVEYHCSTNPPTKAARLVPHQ
Pf ProRS Prolyl-tRNA synthetase, sequence (Q8I5R7 8-746): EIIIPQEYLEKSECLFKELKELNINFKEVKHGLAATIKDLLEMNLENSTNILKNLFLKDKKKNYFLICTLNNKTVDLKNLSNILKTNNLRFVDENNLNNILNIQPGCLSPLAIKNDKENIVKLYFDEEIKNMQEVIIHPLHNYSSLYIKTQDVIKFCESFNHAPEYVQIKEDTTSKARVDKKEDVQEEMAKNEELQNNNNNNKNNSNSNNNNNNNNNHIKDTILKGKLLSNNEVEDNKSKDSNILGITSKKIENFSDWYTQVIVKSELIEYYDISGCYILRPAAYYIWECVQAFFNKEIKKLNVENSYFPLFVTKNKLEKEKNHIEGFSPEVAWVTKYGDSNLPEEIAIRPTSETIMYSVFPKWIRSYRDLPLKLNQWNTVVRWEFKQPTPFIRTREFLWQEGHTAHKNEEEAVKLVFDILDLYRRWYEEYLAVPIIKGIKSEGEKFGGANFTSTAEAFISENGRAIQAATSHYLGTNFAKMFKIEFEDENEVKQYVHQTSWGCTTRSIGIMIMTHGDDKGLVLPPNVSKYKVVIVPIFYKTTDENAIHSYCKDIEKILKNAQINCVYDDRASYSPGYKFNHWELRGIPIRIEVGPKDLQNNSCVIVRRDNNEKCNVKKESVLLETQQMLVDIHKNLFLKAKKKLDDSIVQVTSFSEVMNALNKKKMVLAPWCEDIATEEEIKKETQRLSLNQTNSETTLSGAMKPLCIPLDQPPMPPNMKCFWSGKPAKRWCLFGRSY
Pf KRS Lysyl-tRNA Synthetase, sequence (Q8IDJ8 entry or part of it): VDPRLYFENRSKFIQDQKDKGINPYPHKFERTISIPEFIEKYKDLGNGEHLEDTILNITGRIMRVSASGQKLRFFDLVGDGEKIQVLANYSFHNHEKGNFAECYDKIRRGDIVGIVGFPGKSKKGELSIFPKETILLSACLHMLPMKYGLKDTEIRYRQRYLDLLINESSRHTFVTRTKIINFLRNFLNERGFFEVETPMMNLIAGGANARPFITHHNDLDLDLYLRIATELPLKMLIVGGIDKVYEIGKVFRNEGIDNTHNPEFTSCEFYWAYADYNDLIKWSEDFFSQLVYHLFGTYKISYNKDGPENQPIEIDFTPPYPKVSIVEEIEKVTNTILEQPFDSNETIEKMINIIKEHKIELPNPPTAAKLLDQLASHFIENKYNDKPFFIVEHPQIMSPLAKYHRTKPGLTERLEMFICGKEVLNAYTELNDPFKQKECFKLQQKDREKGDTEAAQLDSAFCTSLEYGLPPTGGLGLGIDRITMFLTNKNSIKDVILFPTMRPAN
cruzain, sequence (P25779 123-337): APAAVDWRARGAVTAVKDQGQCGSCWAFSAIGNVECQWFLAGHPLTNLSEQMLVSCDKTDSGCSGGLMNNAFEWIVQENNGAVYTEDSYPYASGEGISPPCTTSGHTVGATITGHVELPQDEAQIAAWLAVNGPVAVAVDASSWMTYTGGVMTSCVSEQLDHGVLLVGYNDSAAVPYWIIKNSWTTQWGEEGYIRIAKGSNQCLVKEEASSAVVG
P. falciparum HDAC1, sequence (Q7K6A1 entry or part of it): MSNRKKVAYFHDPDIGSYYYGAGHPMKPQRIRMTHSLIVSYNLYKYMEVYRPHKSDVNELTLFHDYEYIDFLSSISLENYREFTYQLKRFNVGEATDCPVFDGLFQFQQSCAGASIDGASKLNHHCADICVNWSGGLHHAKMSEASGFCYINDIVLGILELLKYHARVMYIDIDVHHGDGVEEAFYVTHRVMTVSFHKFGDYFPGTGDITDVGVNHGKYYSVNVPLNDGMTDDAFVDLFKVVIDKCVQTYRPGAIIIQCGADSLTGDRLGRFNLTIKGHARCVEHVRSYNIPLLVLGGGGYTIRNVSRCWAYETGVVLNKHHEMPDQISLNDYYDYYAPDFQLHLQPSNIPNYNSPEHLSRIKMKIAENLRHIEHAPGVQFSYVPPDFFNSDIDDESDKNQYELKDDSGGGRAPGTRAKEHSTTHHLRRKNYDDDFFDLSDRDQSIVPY

`CC(C)C[C@H](NC(=O)[C@H]1O[C@@H]1C(=O)O)C(=O)NCCCCN=C(N)N` (relative stereo) [E-64, trans-Epoxysuccinyl-L-leucylamido-(4-guanidino) butane]: the cruzain % inhibition result in [1] is listed as “approximately 100%”. Moreover, in [2], the rhodesain % inhibition entry is “approximately 100%”. Moreover, in assay [3], the “Effects on asexual life cycle progression (treatment at ER, LR, T, S; merozoites; mitochondrial integrity)” value was “X-S-S-X-o-o”.

In the case of `CC(C)(C)n1nc(-c2cccc3ccccc23)c2c(N)ncnc21` [1NA-PP1], the PK7 % inhibition in [4] is more than 80%.

For `Nc1ncnc2c1ncn2[C@@H]1O[C@H](COP(=O)(O)OP(=O)(O)NP(=O)(O)O)[C@@H](O)[C@H]1O` [AMP-PNP], the MAPK2 % inhibition in [5] was more than 80%.

As for `C[C@H]1CCC[C@H](C[C@H]2Cc3cc(O)cc(O)c3C(=O)O2)O1` [Cladosporin], the PfKRS % inhibition in assay [6] worked out at 100%.

Turning to `COc1cccc(C=Cc2nc(=O)c3ccccc3o2)c1OC` [MMV666693], the “PfEg5 ATPase inhibition in words” value in assay [7] is “selective inhibitor”. Also, the Acetyllysine in assay [8] (S2 Table Metabolomics, metabolite Acetyllysine) is 0.1397. The N-acetyl-L-ornithine in [8] (S2 Table Metabolomics, metabolite N-acetyl-L-ornithine) is 0.2363. In assay [8] (S2 Table Metabolomics, metabolite N-carbamoyl-L-aspartate), the N-carbamoyl-L-aspartate was determined as 3.172. In addition, the NADPH in assay [8] (S2 Table Metabolomics, metabolite NADPH) stood at 0.2825. In addition, the dAMP in [8] (S2 Table Metabolomics, metabolite dAMP) was -0.08701. For the same compound, the dCMP in assay [8] (S2 Table Metabolomics, metabolite dCMP) came out at 0.2474. Also, the dTDP in assay [8] (S2 Table Metabolomics, metabolite dTDP) is on record as -0.7354. Besides, in assay [8] (S2 Table Metabolomics, metabolite dTMP), the dTMP is given as -0.4318. Also, the dTTP in assay [8] (S2 Table Metabolomics, metabolite dTTP) is -0.1932. Further, the dihydroorotate in assay [8] (S2 Table Metabolomics, metabolite dihydroorotate) is 3.894. The orotate in assay [8] (S2 Table Metabolomics, metabolite orotate) is -0.9184. Besides, the DLH in [8] (S2 Table Metabolomics, peptide DLH) is -0.06293. In assay [8] (S2 Table Metabolomics, peptide DLS/SDL/SID), the DLS/SDL/SID is listed as -0.09731. This compound had a PD in [8] (S2 Table Metabolomics, peptide PD) of 0.5949. The compound also returned a PEE in [8] (S2 Table Metabolomics, peptide PEE) of -0.05317. Further, the PVNF in assay [8] (S2 Table Metabolomics, peptide PVNF) was -0.1239. Also, the 3-phosphoglycerate in [8] (metabolite 3-phosphoglycerate, S2 Table Metabolomics) turned out to be 0.2329. Moreover, the ADP-D-glucose in assay [8] (metabolite ADP-D-glucose, S2 Table Metabolomics) was 0.3504. Also, the ATP in [8] (metabolite ATP, S2 Table Metabolomics) was found to be 0.6585. Moreover, the CDP in assay [8] (metabolite CDP, S2 Table Metabolomics, change in metabolite level after compound treatment) was -0.7718. Besides, in assay [8] (metabolite D-sedoheptulose-1/7-phosphate, S2 Table Metabolomics, change in metabolite level after compound treatment), the D-sedoheptulose-1/7-phosphate was 0.3935. The FAD in [8] (metabolite FAD, S2 Table Metabolomics) is 0.6886. For the same compound, the GMP in assay [8] (metabolite GMP, S2 Table Metabolomics, change in metabolite level after compound treatment) worked out at 2.325. For the same compound, in assay [8] (metabolite NAD+, S2 Table Metabolomics), the “NAD+” value was found to be 0.3862. For the same compound, the “NADP+” value in assay [8] (metabolite NADP+, S2 Table Metabolomics) is listed as 0.1667. Further, the “Octoluse Bisphosphate” value in [8] (metabolite Octoluse Bisphosphate, S2 Table Metabolomics, change in metabolite level after compound treatment) came to 0.214. In addition, the Pyroglutamic acid in assay [8] (metabolite Pyroglutamic acid, S2 Table Metabolomics) is reported as -0.09945. Further, the UDP-D-glucose in [8] (metabolite UDP-D-glucose, S2 Table Metabolomics) is recorded as 0.3609. In assay [8] (metabolite UDP-D-glucuronate, S2 Table Metabolomics), the UDP-D-glucuronate is listed as 0.4012. For the same compound, the UDP-N-acetyl-glucosamine in assay [8] (metabolite UDP-N-acetyl-glucosamine, S2 Table Metabolomics) came to 0.3198. Further, the UDP in assay [8] (metabolite UDP, S2 Table Metabolomics, change in metabolite level after compound treatment) is -0.8743. Besides, the UMP in [8] (metabolite UMP, S2 Table Metabolomics, change in metabolite level after compound treatment) is listed as -0.7276. The UTP in [8] (metabolite UTP, S2 Table Metabolomics, change in metabolite level after compound treatment) was -0.635. The a-ketoglutarate in [8] (metabolite a-ketoglutarate, S2 Table Metabolomics) is -0.04301. Moreover, in [8] (metabolite citrate/isocitrate, S2 Table Metabolomics, change in metabolite level after compound treatment), the citrate/isocitrate is given as -0.1473. Further, the cytidine in assay [8] (metabolite cytidine, S2 Table Metabolomics) was found to be 0.3511. For the same compound, the dATP in assay [8] (metabolite dATP, S2 Table Metabolomics) turned out to be 0.7712. Besides, in assay [8] (metabolite dGMP/AMP, S2 Table Metabolomics, change in metabolite level after compound treatment), the dGMP/AMP is recorded as -0.2164. Moreover, in assay [8] (metabolite fumarate, S2 Table Metabolomics, change in metabolite level after compound treatment), the fumarate was 0.7025. Moreover, in assay [8] (metabolite glucose-1/6-phosphate, S2 Table Metabolomics, change in metabolite level after compound treatment), the glucose-1/6-phosphate was found to be 0.5191. In addition, the glycerate in assay [8] (metabolite glycerate, S2 Table Metabolomics, change in metabolite level after compound treatment) is -0.06297. For the same compound, the guanine in [8] (metabolite guanine, S2 Table Metabolomics, change in metabolite level after compound treatment) came out at 0.6599. Also, the guanosine in assay [8] (metabolite guanosine, S2 Table Metabolomics, change in metabolite level after compound treatment) was 0.8246. Moreover, the hypoxanthine in assay [8] (metabolite hypoxanthine, S2 Table Metabolomics) turned out to be 0.08871. For the same compound, in assay [8] (metabolite indole, S2 Table Metabolomics), the indole is on record as 0.0369. In [8] (metabolite inosine, S2 Table Metabolomics, change in metabolite level after compound treatment), the inosine was 0.4625. Also, in assay [8] (setting [13]), the 2_3-Diphosphoglyceric acid worked out at 0.5942, the 4-phosphopantothenate amounted to 0.0573, the 6-phospho-D-gluconate is on record as 0.4861 and the FMN worked out at 0.3054. In [8] (setting [13]), the IMP stood at 0.1618, the Pyrophosphate was found to be 0.3262, the Sedoheptoluse bisphosphate is listed as 0.378 and the cyclic-AMP is recorded as 0.4484. In addition, in assay [8] (setting [13]), the glutathione disulfide came out at 0.6375, the lactate is recorded as 0.2118 and the myo-inositol is on record as 0.3466. Also, the nicotinate in assay [8] (metabolite nicotinate, S2 Table Metabolomics) amounted to 0.3154. Further, in [8] (metabolite ornithine, S2 Table Metabolomics), the ornithine is listed as 0.1755. Further, in assay [8] (metabolite phosphoenolpyruvate, S2 Table Metabolomics), the phosphoenolpyruvate is on record as 0.1481. The pyruvate in [8] (metabolite pyruvate, S2 Table Metabolomics, change in metabolite level after compound treatment) is -0.005171. Further, the ribose-phosphate in [8] (metabolite ribose-phosphate, S2 Table Metabolomics) is listed as 0.3602. The sarcosine/alanine in assay [8] (metabolite sarcosine/alanine, S2 Table Metabolomics, change in metabolite level after compound treatment) is given as 0.4257. For the same compound, the sn-glycerol-3-phosphate in assay [8] (metabolite sn-glycerol-3-phosphate, S2 Table Metabolomics) is 0.6187. In addition, the succinate/methylmalonic acid in [8] (metabolite succinate/methylmalonic acid, S2 Table Metabolomics, change in metabolite level after compound treatment) is 0.3609. Also, in assay [8] (metabolite uridine, S2 Table Metabolomics, change in metabolite level after compound treatment), the uridine is given as -0.1766. Further, in assay [8] (metabolite xanthosine, S2 Table Metabolomics, change in metabolite level after compound treatment), the xanthosine was found to be 0.5199. Further, the EC50 in assay [9] worked out at 23.8 nM. For the same compound, the “PvEg5 ATPase inhibition in words” value in assay [10] is “selective inhibitor”.

As for `O=C(CC1NCCCC1O)Cn1cnc2cc(Br)c(Cl)cc2c1=O` (stereo not drawn) [halofuginone], in assay [11], the PfProRS % inhibition amounted to 100%.

In assay [12], `CC(/C=C/C(=O)NO)=C\[C@@H](C)C(=O)c1ccc(N(C)C)cc1` [trichostatin A] came in with a PfHDAC1 % inhibition of 89.9 ± 0.5%.
